Results from PubChem BioAssay AID248 (DTP/NCI, 2004).
Where “and” joins values, the source holds several entries; their conditions need not be identical. Equal values may be shown once. Inconclusive results and toxic doses are left out. Rule as the data show it: active = T/C of 150% or more; inactive = T/C below 125%.

Test system: L1210 leukemia ip in BDF1 mice, survival T/C
Assay: NCI In Vivo Anticancer Drug Screen. Data for tumor model L1210 Leukemia (intraperitoneal) in B6D2F1 (BDF1) mice
Settings: endpoint: mean survival time, higher = longer survival
Procedure: The antitumor activity of compounds was measured in mice bearing transplantable tumors. Survival or tumor size were measured and the results are expressed as the measurement made in the treated group (T) divided by the measurement made in the vehicle treated control group (C). The tumor model used in this assay is L1210 Leukemia (intraperitoneal) in B6D2F1 (BDF1) mice

[1] = dose: 100.0 mg/kg/injection, schedule: Q04DX002 (ip), vehicle: saline with Tween-80
[2] = dose: 200.0 mg/kg/injection, schedule: Q04DX002 (ip), vehicle: saline with Tween-80
[3] = dose: 400.0 mg/kg/injection, schedule: Q04DX002 (ip), vehicle: saline with Tween-80
[4] = dose: 100.0 mg/kg/injection, schedule: Q01DX001 (ip), vehicle: saline
[5] = dose: 200.0 mg/kg/injection, schedule: Q01DX001 (ip), vehicle: saline
[6] = dose: 400.0 mg/kg/injection, schedule: Q01DX001 (ip), vehicle: saline
[7] = dose: 100.0 mg/kg/injection, schedule: Q04DX003 (ip), vehicle: saline
[8] = dose: 200.0 mg/kg/injection, schedule: Q04DX003 (ip), vehicle: saline
[9] = dose: 400.0 mg/kg/injection, schedule: Q04DX003 (ip), vehicle: saline
[10] = dose: 37.5 mg/kg/injection, schedule: Q01DX001 (ip), vehicle: Klucel (hydroxypropylcellulose) (HPC)
[11] = dose: 75.0 mg/kg/injection, schedule: Q01DX001 (ip), vehicle: Klucel (hydroxypropylcellulose) (HPC)
[12] = dose: 150.0 mg/kg/injection, schedule: Q01DX001 (ip), vehicle: Klucel (hydroxypropylcellulose) (HPC)

Measured: T/C

O=S(=O)(c1ccc(Br)cc1)c1ccc(Br)cc1
inactive: dose: 100.0 mg/kg/injection, schedule: Q04DX003 (ip), vehicle: saline with Tween-80 98 % of control | dose: 200.0 mg/kg/injection, schedule: Q04DX003 (ip), vehicle: saline with Tween-80 98 % of control | dose: 400.0 mg/kg/injection, schedule: Q04DX003 (ip), vehicle: saline with Tween-80 104 % of control

O=[N+]([O-])/C=C/c1cccc([N+](=O)[O-])c1
inactive: dose: 25.0 mg/kg/injection, schedule: Q04DX003 (ip), vehicle: Klucel (hydroxypropylcellulose) (HPC) 103 % of control | dose: 50.0 mg/kg/injection, schedule: Q04DX003 (ip), vehicle: Klucel (hydroxypropylcellulose) (HPC) 103 % of control

COc1ccc(OC)c(N(CCN2C(=O)c3ccccc3C2=O)C(=O)C2CCC(=O)C2C)c1 (stereo not drawn)
inactive: [1] 100 % of control | [2] 103 % of control | [3] 97 % of control

CN(C)C(=S)N(C(=S)N(C)C)c1ccc(Cl)cc1
inactive: [4] 101 % of control | [5] 92 % of control | [6] 97 % of control

C[C@]12CC[C@H](O)CC1=CC[C@@H]1[C@@H]2CC[C@](C)(C(=O)O)[C@H]1CC1Nc2ccccc2C1=O (stereo partly drawn)
inactive: [4] 95 % of control | [7] 91 % of control | [5] 92 % of control and 91 % of control | [8] 95 % of control | [6] 97 % of control and 86 % of control | [9] 104 % of control

CCOC(=O)c1cnc(SC)nc1Nc1ccccc1I
inactive: dose: 100.0 mg/kg/injection, schedule: Q04DX003 (ip), vehicle: Klucel (hydroxypropylcellulose) (HPC) 101 % of control | dose: 200.0 mg/kg/injection, schedule: Q04DX003 (ip), vehicle: Klucel (hydroxypropylcellulose) (HPC) 97 % of control | dose: 400.0 mg/kg/injection, schedule: Q04DX003 (ip), vehicle: Klucel (hydroxypropylcellulose) (HPC) 103 % of control

CC(=O)OCC(=O)[C@@]1(O)CC[C@H]2[C@@H]3C[C@H](C)C4=CC(=O)C=C[C@]4(C)[C@@]3(F)[C@@H](O)C[C@@]21C
inactive: dose: 100.0 mg/kg/injection, schedule: Q01DX009 (ip), vehicle: saline 103 % of control | [7] 94 % of control | dose: 200.0 mg/kg/injection, schedule: Q01DX009 (ip), vehicle: saline 92 % of control | [8] 111 % of control | dose: 400.0 mg/kg/injection, schedule: Q01DX009 (ip), vehicle: saline 108 % of control | [9] 103 % of control

C=C1CC(CCCCC2CC(=C)C(=O)O2)OC1=O (stereo not drawn)
inactive: dose: 100.0 mg/kg/injection, schedule: Q04DX002 (ip), vehicle: saline 108 % of control | dose: 200.0 mg/kg/injection, schedule: Q04DX002 (ip), vehicle: saline 101 % of control | dose: 400.0 mg/kg/injection, schedule: Q04DX002 (ip), vehicle: saline 108 % of control

Nc1nc(-c2cccc([N+](=O)[O-])c2)nc2[nH]ncc12
inactive: [10] 98 % of control | [11] 98 % of control | [12] 96 % of control

CC(=O)Nc1ccc(/C(C#N)=C/c2ccc(N(C)CCC#N)cc2)cc1
inactive: dose: 100.0 mg/kg/injection, schedule: Q01DX009 (ip), vehicle: Klucel (hydroxypropylcellulose) (HPC) 98 % of control | dose: 200.0 mg/kg/injection, schedule: Q01DX009 (ip), vehicle: Klucel (hydroxypropylcellulose) (HPC) 100 % of control | dose: 400.0 mg/kg/injection, schedule: Q01DX009 (ip), vehicle: Klucel (hydroxypropylcellulose) (HPC) 96 % of control

COc1ccc(Cl)cc1NC(=O)COc1ccccc1
inactive: dose: 100.0 mg/kg/injection, schedule: Q01DX001 (ip), vehicle: saline with Tween-80 89 % of control | dose: 100.0 mg/kg/injection, schedule: Q01DX009 (ip), vehicle: saline with Tween-80 102 % of control | [1] 97 % of control and 98 % of control | dose: 200.0 mg/kg/injection, schedule: Q01DX001 (ip), vehicle: saline with Tween-80 92 % of control | dose: 200.0 mg/kg/injection, schedule: Q01DX009 (ip), vehicle: saline with Tween-80 98 % of control and 102 % of control | [2] 94 % of control and 97 % of control | dose: 400.0 mg/kg/injection, schedule: Q01DX001 (ip), vehicle: saline with Tween-80 101 % of control | dose: 400.0 mg/kg/injection, schedule: Q01DX009 (ip), vehicle: saline with Tween-80 93 % of control and 102 % of control | [3] 94 % of control and 101 % of control

CC(CO)(CO)N=Cc1ccccc1
inactive: dose: 50.0 mg/kg/injection, schedule: Q01DX001 (ip), vehicle: saline 112 % of control | [4] 112 % of control | [5] 100 % of control | [6] 100 % of control

CC(COC(=O)c1ccc(N)cc1)NC1CCCC1 (stereo not drawn)
inactive: dose: 75.0 mg/kg/injection, schedule: Q01DX001 (ip), vehicle: saline 97 % of control | dose: 150.0 mg/kg/injection, schedule: Q01DX001 (ip), vehicle: saline 105 % of control

Cc1ccccc1N=Nc1c(O)n(-c2ccc(Br)cc2)c(=S)n(-c2ccccc2)c1=O
inactive: [10] 101 % of control | [11] 101 % of control | [12] 101 % of control

CCCCCCCCCCCCCCCCS(=O)(=O)N/N=C/c1cc(Cl)ccc1O
inactive: dose: 100.0 mg/kg/injection, schedule: Q01DX001 (ip), vehicle: carboxymethylcellulose (CMC) 94 % of control | dose: 200.0 mg/kg/injection, schedule: Q01DX001 (ip), vehicle: carboxymethylcellulose (CMC) 92 % of control | dose: 400.0 mg/kg/injection, schedule: Q01DX001 (ip), vehicle: carboxymethylcellulose (CMC) 92 % of control

O=[N+]([O-])c1ccc(O)c([N+](=O)[O-])c1
inactive: dose: 3.35 mg/kg/injection, schedule: Q01DX Z (ip), vehicle: carboxymethylcellulose (CMC) 94 % of control | dose: 10.32 mg/kg/injection, schedule: Q01DX Z (ip), vehicle: carboxymethylcellulose (CMC) 95 % of control | dose: 13.4 mg/kg/injection, schedule: Q01DX Z (ip), vehicle: carboxymethylcellulose (CMC) 98 % of control | dose: 17.86 mg/kg/injection, schedule: Q01DX Z (ip), vehicle: carboxymethylcellulose (CMC) 94 % of control | dose: 26.8 mg/kg/injection, schedule: Q01DX Z (ip), vehicle: carboxymethylcellulose (CMC) 88 % of control | [4] 94 % of control

CCCCCCCC/C=C\CCCCCCCC(=O)OCCCCCCCC
inactive: dose: 100.0 mg/kg/injection, schedule: Q01DX001 (ip), vehicle: Klucel (hydroxypropylcellulose) (HPC) 97 % of control | dose: 100.0 mg/kg/injection, schedule: Q01DX009 (ip), vehicle: saline sonified 102 % of control | dose: 200.0 mg/kg/injection, schedule: Q01DX001 (ip), vehicle: Klucel (hydroxypropylcellulose) (HPC) 98 % of control | dose: 200.0 mg/kg/injection, schedule: Q01DX009 (ip), vehicle: saline sonified 98 % of control | dose: 400.0 mg/kg/injection, schedule: Q01DX001 (ip), vehicle: Klucel (hydroxypropylcellulose) (HPC) 92 % of control | dose: 400.0 mg/kg/injection, schedule: Q01DX009 (ip), vehicle: saline sonified 105 % of control
